Measurements published in ChEMBL document CHEMBL1201862, “PubChem BioAssay data set” (2004).
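Results reflect a 48-hour exposure of cells in 96-well plates to compound at five concentrations. Abbreviation: GI50, concentration required for 50% inhibition of growth.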 Active and inactive are the calls of the source. Rule as the data show it: active = GI50 up to about 1.1 µM and inactive = higher. Non-standard residues stand in square brackets, D forms with d. Residues, ends and D or L forms follow the SMILES beside them. ξ: configuration not given here. *: point of attachment. NMeF = CN[C@@H](Cc1ccccc1)C(=O)O; ξNMeV = CNC(C(=O)O)C(C)C; Boc = CC(C)(C)OC(=O)*; OBn = c1ccc(CO*)cc1

Assays:
Experiment in all cases: NCI tumour cell line growth inhibition, 48 h
[1] = system: SK-MEL-2
[2] = system: MCF7
[3] = system: U-251
[4] = system: IGROV-1
[5] = system: A549
[6] = system: SK-MEL-5
[7] = system: SW-620
[8] = system: DU-145
[9] = system: HL-60
[10] = system: MDA-MB-231
[11] = system: PC-3
[12] = system: OVCAR-5
[13] = system: TK-10
[14] = system: SN12C
[15] = system: HCC 2998
[16] = system: NCI-H460
[17] = system: NCI-H23
[18] = system: NCI-H522
[19] = system: SF-539
[20] = system: T47D

| Compound | GI50 [1] | GI50 [2] | GI50 [3] | GI50 [4] | GI50 [5] | GI50 [6] | GI50 [7] | GI50 [8] | GI50 [9] | GI50 [10] | GI50 [11] | GI50 [12] | GI50 [13] | GI50 [14] | GI50 [15] | GI50 [16] | GI50 [17] | GI50 [18] | GI50 [19] | GI50 [20] |
| --- | --- | --- | --- | --- | --- | --- | --- | --- | --- | --- | --- | --- | --- | --- | --- | --- | --- | --- | --- | --- |
| N#Cc1nc(/C=C/c2cccs2)oc1N | > 100 µM (inactive) | 99.1 µM (inactive) | 95.3 µM (inactive) | 65.9 µM (inactive) | > 100 µM (inactive) | 51.1 µM (inactive) | > 100 µM (inactive) | > 100 µM (inactive) | 12.6 µM (inactive) | > 100 µM (inactive) | 97.1 µM (inactive) | > 100 µM (inactive) | 61.4 µM (inactive) | > 100 µM (inactive) |  |  |  |  |  |  |
| CCN1C(=O)/C(=C2\SC(c3ccccc3)(c3ccccc3)c3ccccc32)SC1=S |  | > 100 µM (inactive) | 44.7 µM (inactive) | 70.3 µM (inactive) | 87.9 µM (inactive) | > 100 µM (inactive) |  | > 100 µM (inactive) |  | 72.3 µM (inactive) | 74.5 µM (inactive) | > 100 µM (inactive) | > 100 µM (inactive) | > 100 µM (inactive) | > 100 µM (inactive) | > 100 µM (inactive) | > 100 µM (inactive) | > 100 µM (inactive) | 46.7 µM (inactive) |  |
| Cc1cc(C)c(N[S+]([O-])c2cccc([N+](=O)[O-])c2)c(C)c1 (stereo unspecified) |  | > 100 µM (inactive) | > 100 µM (inactive) |  | > 100 µM (inactive) |  | > 100 µM (inactive) | > 100 µM (inactive) | > 100 µM (inactive) |  | > 100 µM (inactive) | > 100 µM (inactive) | > 100 µM (inactive) | > 100 µM (inactive) |  | > 100 µM (inactive) | > 100 µM (inactive) |  | > 100 µM (inactive) | > 100 µM (inactive) |
| O=C1Nc2cccc(Cl)c2/C1=C\c1cccnc1 | 11.1 µM (inactive) | 4.02 µM (inactive) | 6.47 µM (inactive) |  | 11.1 µM (inactive) | 11.4 µM (inactive) | 9.57 µM (inactive) | 6.37 µM (inactive) | 3.72 µM (inactive) |  | 14.8 µM (inactive) | 3.77 µM (inactive) | 17.8 µM (inactive) | 7.82 µM (inactive) | 2.15 µM (inactive) | 8.22 µM (inactive) | 3.75 µM (inactive) | 9.66 µM (inactive) | 12.4 µM (inactive) | 3.65 µM (inactive) |
| CCCC(N)C(=O)c1ccccc1 (stereo unspecified) | > 100 µM (inactive) |  | > 100 µM (inactive) | > 100 µM (inactive) | > 100 µM (inactive) | > 100 µM (inactive) | > 100 µM (inactive) |  | > 100 µM (inactive) |  |  | > 100 µM (inactive) | > 100 µM (inactive) | > 100 µM (inactive) | > 100 µM (inactive) | > 100 µM (inactive) | > 100 µM (inactive) | > 100 µM (inactive) | > 100 µM (inactive) |  |
| O=c1c2cc(I)ccc2nc(-c2cccs2)n1-c1ccc(O)cc1 | 15.6 µM (inactive) | 11.5 µM (inactive) | 17.9 µM (inactive) | 13.5 µM (inactive) | 10.2 µM (inactive) | 11.6 µM (inactive) | 22.2 µM (inactive) | 6.78 µM (inactive) | 7.82 µM (inactive) |  | 10.6 µM (inactive) | 15.5 µM (inactive) | 10.7 µM (inactive) | 15.5 µM (inactive) | 16.1 µM (inactive) | 14.9 µM (inactive) | 16.7 µM (inactive) | 13.1 µM (inactive) | < 0.01 µM (active) | 1.56 µM (inactive) |
| COCOCC[C@@H]1CC=CC(NC(=O)OCc2ccccc2)C1/C=C/C(=O)CCC1OCCO1 (stereo partly specified) | 25.4 µM (inactive) |  | 25.7 µM (inactive) | 56.6 µM (inactive) | 75.5 µM (inactive) | 55.2 µM (inactive) | 22.8 µM (inactive) |  | 18.5 µM (inactive) |  |  | > 72.8 µM (inactive) | 46.8 µM (inactive) | 25.2 µM (inactive) | > 63.7 µM (inactive) | 38.6 µM (inactive) | 37.6 µM (inactive) | 16.4 µM (inactive) | 25.6 µM (inactive) |  |
| CC(C)C(C(=O)N1CCC[C@@H]1C(=O)OCc1ccccc1)N(C)C(=O)C(C(C)C)N(C)C(=O)[C@H](Cc1ccccc1)N(C)C(=O)[C@H](NC(=O)OC(C)(C)C)C(C)C (stereo partly specified) (Boc-[dV][NMeF][ξNMeV][ξNMeV][dP]-OBn) | > 100 µM (inactive) |  | > 100 µM (inactive) | > 100 µM (inactive) | 6.55 µM (inactive) | 14.9 µM (inactive) | > 100 µM (inactive) |  | 4.12 µM (inactive) |  |  | > 100 µM (inactive) | > 100 µM (inactive) | > 100 µM (inactive) | > 100 µM (inactive) | > 24.3 µM (inactive) | > 81.3 µM (inactive) | > 100 µM (inactive) | > 100 µM (inactive) |  |
